Measured values: PubChem BioAssay (NCI)
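48-hour exposure; five concentrations; linearly interpolated endpoints. GI50: concentration for 50% inhibition of growth. Definition used: TGI = concentration required for complete inhibition of growth.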

Legend:
Assay in all cases: NCI anticancer screen, dose series, 48 h
786-0 renal = tested on: 786-0 renal
A498 renal = tested on: A498 renal
A549 NSCLC = tested on: A549 NSCLC
ACHN renal = tested on: ACHN renal
BT-549 breast = tested on: BT-549 breast
CAKI-1 renal = tested on: CAKI-1 renal
CCRF-CEM leukemia = tested on: CCRF-CEM leukemia
COLO 205 colon = tested on: COLO 205 colon
DU-145 prostate = tested on: DU-145 prostate
EKVX NSCLC = tested on: EKVX NSCLC
HCC-2998 colon = tested on: HCC-2998 colon
HCT-15 colon = tested on: HCT-15 colon
HL-60(TB) leukemia = tested on: HL-60(TB) leukemia
HOP-62 NSCLC = tested on: HOP-62 NSCLC
HOP-92 NSCLC = tested on: HOP-92 NSCLC
HS 578T breast = tested on: HS 578T breast
HT29 colon = tested on: HT29 colon
IGROV1 ovarian = tested on: IGROV1 ovarian
K-562 leukemia = tested on: K-562 leukemia
KM12 colon = tested on: KM12 colon
LOX IMVI melanoma = tested on: LOX IMVI melanoma
M14 melanoma = tested on: M14 melanoma
MALME-3M melanoma = tested on: MALME-3M melanoma
MCF7 breast = tested on: MCF7 breast
MDA-MB-231 breast = tested on: MDA-MB-231 breast
MDA-MB-435 = tested on: MDA-MB-435
MOLT-4 leukemia = tested on: MOLT-4 leukemia
NCI-H226 lung = tested on: NCI-H226 lung
NCI-H23 lung = tested on: NCI-H23 lung
NCI-H460 lung = tested on: NCI-H460 lung
NCI-H522 lung = tested on: NCI-H522 lung
NCI/ADR-RES ovarian = tested on: NCI/ADR-RES ovarian
OVCAR-3 ovarian = tested on: OVCAR-3 ovarian
OVCAR-4 ovarian = tested on: OVCAR-4 ovarian
OVCAR-5 ovarian = tested on: OVCAR-5 ovarian
OVCAR-8 ovarian = tested on: OVCAR-8 ovarian
PC-3 prostate = tested on: PC-3 prostate
RXF 393 renal = tested on: RXF 393 renal
SF-268 CNS = tested on: SF-268 CNS
SF-295 CNS = tested on: SF-295 CNS
SF-539 CNS = tested on: SF-539 CNS
SK-MEL-2 melanoma = tested on: SK-MEL-2 melanoma
SK-MEL-28 melanoma = tested on: SK-MEL-28 melanoma
SK-MEL-5 melanoma = tested on: SK-MEL-5 melanoma
SK-OV-3 ovarian = tested on: SK-OV-3 ovarian
SN12C renal = tested on: SN12C renal
SNB-19 CNS = tested on: SNB-19 CNS
SNB-75 CNS = tested on: SNB-75 CNS
SW-620 colon = tested on: SW-620 colon
T-47D breast = tested on: T-47D breast
TK-10 renal = tested on: TK-10 renal
U251 CNS = tested on: U251 CNS
UACC-257 melanoma = tested on: UACC-257 melanoma
UACC-62 melanoma = tested on: UACC-62 melanoma
UO-31 renal = tested on: UO-31 renal

COc1ccc(CC(C)=C(c2ccc(OCCN3CCCCCC3)cc2)c2ccc(OCCN3CCCCCC3)cc2)cc1
GI50 (786-0 renal): 0.0838 µM | TGI (786-0 renal): 0.159 µM | GI50 (A498 renal): 0.513 µM | TGI (A498 renal): 1.2 µM | GI50 (A549 NSCLC): 0.343 µM | TGI (A549 NSCLC): 1.02 µM | GI50 (ACHN renal): 0.135 µM | TGI (ACHN renal): 0.374 µM | GI50 (BT-549 breast): 0.681 µM | TGI (BT-549 breast): 1.37 µM | GI50 (CAKI-1 renal): 0.345 µM | TGI (CAKI-1 renal): 0.93 µM | GI50 (CCRF-CEM leukemia): 0.158 µM | TGI (CCRF-CEM leukemia): 0.609 µM | GI50 (COLO 205 colon): 0.0944 µM | TGI (COLO 205 colon): 0.182 µM | GI50 (DU-145 prostate): 0.275 µM | TGI (DU-145 prostate): 0.879 µM | GI50 (EKVX NSCLC): 0.615 µM | TGI (EKVX NSCLC): 1.3 µM | GI50 (HCC-2998 colon): 0.0881 µM | TGI (HCC-2998 colon): 0.182 µM | GI50 (HCT-15 colon): 0.121 µM | TGI (HCT-15 colon): 0.382 µM | GI50 (HL-60(TB) leukemia): 0.099 µM | TGI (HL-60(TB) leukemia): 0.229 µM | GI50 (HOP-62 NSCLC): 0.626 µM | TGI (HOP-62 NSCLC): 1.28 µM | GI50 (HOP-92 NSCLC): 0.254 µM | TGI (HOP-92 NSCLC): 0.986 µM | GI50 (HS 578T breast): 0.175 µM | TGI (HS 578T breast): 0.757 µM | GI50 (HT29 colon): 0.0843 µM | TGI (HT29 colon): 0.181 µM | GI50 (IGROV1 ovarian): 0.37 µM | TGI (IGROV1 ovarian): 1.02 µM | GI50 (K-562 leukemia): 0.0987 µM | TGI (K-562 leukemia): 0.22 µM | GI50 (KM12 colon): 0.24 µM | TGI (KM12 colon): 0.823 µM | GI50 (LOX IMVI melanoma): 0.0875 µM | TGI (LOX IMVI melanoma): 0.161 µM | GI50 (M14 melanoma): 0.0886 µM | TGI (M14 melanoma): 0.171 µM | GI50 (MALME-3M melanoma): 0.09 µM | TGI (MALME-3M melanoma): 0.171 µM | GI50 (MCF7 breast): 0.0872 µM | TGI (MCF7 breast): 0.187 µM | GI50 (MDA-MB-231 breast): 0.176 µM | TGI (MDA-MB-231 breast): 0.487 µM | GI50 (MDA-MB-435): 0.0891 µM | TGI (MDA-MB-435): 0.166 µM | GI50 (MOLT-4 leukemia): 0.133 µM | TGI (MOLT-4 leukemia): 0.406 µM | GI50 (NCI-H226 lung): 0.531 µM | TGI (NCI-H226 lung): 1.42 µM | GI50 (NCI-H23 lung): 0.709 µM | TGI (NCI-H23 lung): 1.41 µM | GI50 (NCI-H460 lung): 0.1 µM | TGI (NCI-H460 lung): 0.186 µM | GI50 (NCI-H522 lung): 0.443 µM | TGI (NCI-H522 lung): 1.2 µM | GI50 (NCI/ADR-RES ovarian): 0.655 µM | TGI (NCI/ADR-RES ovarian): 1.41 µM | GI50 (OVCAR-3 ovarian): 0.113 µM | TGI (OVCAR-3 ovarian): 0.239 µM | GI50 (OVCAR-4 ovarian): 0.432 µM | TGI (OVCAR-4 ovarian): 1.11 µM | GI50 (OVCAR-5 ovarian): 0.631 µM | TGI (OVCAR-5 ovarian): 1.26 µM | GI50 (OVCAR-8 ovarian): 0.607 µM | TGI (OVCAR-8 ovarian): 1.45 µM | GI50 (PC-3 prostate): 0.265 µM | TGI (PC-3 prostate): 0.86 µM | GI50 (RXF 393 renal): 0.348 µM | TGI (RXF 393 renal): 1.05 µM | GI50 (SF-268 CNS): 0.474 µM | TGI (SF-268 CNS): 1.15 µM | GI50 (SF-295 CNS): 0.3 µM | TGI (SF-295 CNS): 0.861 µM | GI50 (SF-539 CNS): 0.0978 µM | TGI (SF-539 CNS): 0.194 µM | GI50 (SK-MEL-2 melanoma): 0.756 µM | TGI (SK-MEL-2 melanoma): 1.5 µM | GI50 (SK-MEL-28 melanoma): 0.0911 µM | TGI (SK-MEL-28 melanoma): 0.166 µM | GI50 (SK-MEL-5 melanoma): 0.119 µM | TGI (SK-MEL-5 melanoma): 0.312 µM | GI50 (SK-OV-3 ovarian): 0.612 µM | TGI (SK-OV-3 ovarian): 1.24 µM | GI50 (SN12C renal): 0.657 µM | TGI (SN12C renal): 1.35 µM | GI50 (SNB-19 CNS): 0.232 µM | TGI (SNB-19 CNS): 0.817 µM | GI50 (SNB-75 CNS): 0.487 µM | TGI (SNB-75 CNS): 1.16 µM | GI50 (SW-620 colon): 0.089 µM | TGI (SW-620 colon): 0.179 µM | GI50 (T-47D breast): 0.219 µM | TGI (T-47D breast): 0.955 µM | GI50 (TK-10 renal): 0.729 µM | TGI (TK-10 renal): 1.47 µM | GI50 (U251 CNS): 0.107 µM | TGI (U251 CNS): 0.259 µM | GI50 (UACC-257 melanoma): 0.108 µM | TGI (UACC-257 melanoma): 0.262 µM | GI50 (UACC-62 melanoma): 0.0987 µM | TGI (UACC-62 melanoma): 0.199 µM | GI50 (UO-31 renal): 0.308 µM | TGI (UO-31 renal): 0.929 µM
